Test results reported in patent publication US20080220056A1, “Treatment for liver disease” (UNIVERSITY OF SOUTHAMPTON, priority 2002, published 2008).

Key:
Assay type in all cases: cell-based
[1] = tested on: intracellular Ca2+ in rat hepatic stellate cells; experiment: Confocal microscopy of fluo-3 (intracellular calcium); details: 1.5 μmol/L gliotoxin
Experimental: Intracellular calcium concentrations were examined by preloading activated hepatic stellate cells seeded onto 35-mm diameter dishes with 2.5 μmol/L Fluo-3AM for two hours. Mitochondrial integrity was determined by coloading cells with […] TMRM and 1 μmol/M calcein-AM for three hours. After loading, the culture medium was removed and the cells were washed extensively with confocal buffer (145 mmol/L NaCl, 5 mml/L KCl, 1 mmol/L MgSO4, 1 mmol/L NaH2PO4, 10 mmol/L HEPES, 25 mmol/L glucose, 1 mmol/L CaCl2 and 2 mg/mL bovine serum albumin, pH 7.4) and incubated at 37° C. in 2 mL confocal buffer containing 1.5 μmol/L gliotoxin or DMSO vehicle control.
Fluo-3 and calcein fluorescence were excited at 488 nm and collected at 515-530 nm using a band width filter. TMRM was excited at 543 nm and collected at wavelengths greater than 570 nm.
MPT results in futile Ca^2+ cycling by mitochondria, which enhances the likelihood of cell death (Crompton et al., Biochem. J. (1999) 341: 233-249). The role of the MPT in the late events of gliotoxin apoptosis was also therefore assessed by measuring intracellular calcium levels. Culture-activated (14-day) rat hepatic stellate cells in six-well plates were loaded with fluo-3 and fluorescence imaged as outlined in the Materials and methods section after treatment with DMSO control or 1.5 μmol/L gliotoxin.

hepatic stellate cells = experiment: TUNEL staining of cycloheximide-treated hepatic stellate cells; details: 50 μM cycloheximide 18 h; TIMP-1 100 ng/ml
Experimental: Hepatic stellate cells were cultured on glass chamber slides and then exposed to 50 μM cycloheximide for 18 h with and without TIMP-1 (100 ng/ml). Slides were then stained for DNA fragmentation characteristic of apoptosis by the TUNEL reaction as previously described (Iredale et al., J. Clin. Invest., (1998) 102, 538-549) with the modifications recently described to reduce false positively (Stahelin et al., Mol. Pathol., (1998) 51, 204-208). Each slide was then analyzed by a blinded observer who counted the number of TUNEL-positive apoptotic figures and the TUNEL-negative cells over 10 high power fields for each condition.
A further pathognomonic feature of apoptosis is the fragmentation of DNA into oligonucleosomal lengths (Evan et al., Cell (1992) 69: 119-128). Fragmented DNA can be identified by the TUNEL technique, which can therefore be used to further quantify the apoptotic response of hepatic stellate cells in the presence and absence of cycloheximide. To assess DNA fragmentation activated hepatic stellate cells were therefore induced to undergo apoptosis by cycloheximide treatment in the presence and absence of TIMP-1 and the number of TUNEL positive cells assessed. […] As a control cells which were treated with serum alone were analyzed. […]

Bcl-2 protein = experiment: Western blotting for Bcl-2 in hepatic stellate cells; details: cycloheximide 18 hours with TIMP-1 (200 ng/ml and 100 ng/ml both printed) versus cycloheximide alone
Experimental: Cultured hepatic stellate cells were harvested with a sterile cell scraper, pelleted by centrifugation, and then resuspended in 500 μl of TE buffer (10 mmol/Tris-HCl, 1 mmol/liter EDTA, pH 8.0) before sonication for 15 min. 100 μl of PicoGreen (Molecular Probes, Inc., Eugene, Oreg.) at 1:200 dilution was added to 100 μl of sample and incubated in the dark at room temperature for 5 min. Standards were made from herring sperm DNA. Fluorescence was measured using a Cytofluor II Microwell Fluorescence reader (Perceptive Biosystems, Framingham, Mass.) at standard wavelengths (excitation 485 nm, emission 530 nm). Concentrations of double-stranded DNA in the samples were calculated from the standard curve. […]
The protein Bcl-2 regulates the properties of cells to undergo apoptosis by interpolating into the mitochondria membrane (Hengartner, supra). […] To define changes in the protein level of Bcl-2, extracts from hepatic stellate cells treated with cycloheximide for 18 hours, either in the presence and absence of 200 ng/ml TIMP-1, were analyzed by western blotting. Equal quantities (determined by protein concentration) of protein extracts from hepatic stellate cells exposed to: serum alone; cycloheximide alone; or cycloheximide with TIMP-1 protein (100 ng/ml) were assessed by blotting.

[2] = tested on: rat hepatic stellate cells; experiment: Hepatic stellate cell proliferation (tritiated thymidine); details: TIMP-1 1-100 ng/ml, 24 hour incubation, versus BSA carrier
Experimental: Hepatic stellate cells were cultured in 24-well tissue culture plates. These were washed with serum-free medium for 24 h, and then the cells were exposed to TIMP-1 at a concentration range of 1-100 ng/ml for 24 h and then pulsed with tritiated thymidine (0.5 μCi/well) for 18 hours before scintillation counting as previously described (Boulton et al., Clin. Sci., (1995) 88:119-130).

CN1C(=O)[C@]23CC4=CC=C[C@H](O)[C@H]4N2C(=O)[C@@]1(CO)SS3 [gliotoxin]
intracellular Ca2+ levels [1]: do not rise until two hours of incubation

TIMP-1: recombinant tissue inhibitor of matrix metalloproteases 1 (Biogenesis)
cells containing fragmented DNA (TUNEL) (hepatic stellate cells): significantly reduced numbers of cells containing fragmented DNA
Bcl-2 protein expression (Bcl-2 protein): enhanced levels of Bcl-2 protein expression
proliferation of rat hepatic stellate cells [2]: had no effect on proliferation
